Laboratory results reported in patent publication US20230277669A1, “USES OF UROLITHINS” (Amazentis SA, priority 2022, published 2023).

Test system: TIL CD8+ population
Experiment: Flow cytometry analysis of TIL of UA-fed mice with APTK tumors
Assay type: in vivo, C57BL/6 mice
Procedure: (FIG. 2A) Scheme of CD3+ T-cell activation and analysis for various timepoints. (FIG. 2B) Reduced effector molecule expression on in vitro treated cells (n=3 pooled from three independent experiments). Isolated T-cells were stimulated for 48 h at the presence of UA or DMSO in the indicated doses. Data are mean ± SD, *p < 0.05 by two-sided t-test. (FIG. 2C) Reduced effector molecule expression on in vitro treated cells (n=3 pooled from three independent experiments). Isolated T-cells were stimulated for 48 h at the presence of UA or DMSO in the indicated doses. Data are mean ± SD, *p < 0.05 by two-sided t-test. (FIG. 2D) Quantification of T memory stem cells (TSCM: CD44^-CD62L^+Sca1^hi) after 24 h, 48 h and 96 h post stimulation with aCD3/aCD28 stimulation beads as indicated in (A) (n=4 pooled from four independent experiments). Data are mean ± SD, statistical analysis was performed via two-sided t-test (*p < 0.05; **p < 0.01; n.s. not significant). (FIG. 2E) Mitochondrial membrane potential within naïve CD62L^+CD44^-CD8^+ T cells, with TMRM^lo representing cells with low mitochondrial membrane potential. Cells were stimulated for 48 h as depicted in (A). Data are mean ± SD, n=4; ***p <0.001 by two-sided t-test. Experiment was repeated twice in independent experiments. (FIG. 2F) Representative histogram and quantification of memory marker CD95 expression in CD62L^+CD44^-CD8^+ cells, 48 hours after in vitro stimulation. Data are mean ± SD; n=5; ****p < 0.0001 by two-sided t-test. Data depicts one of two independent experiments. (FIG. 2G) Analysis of TIL of UA-fed mice, treated as depicted in FIG. 1J. Percentage of TSCM within CD8+ (G; n=7), as well as TCF1 (H; n=7) PD1^hi,Tim3^hi and CTLA4hi (I-K, all n=6) in the TIL CD8+ population are shown. Data are mean ± SD, statistical analysis was performed via two-sided t-test (*p < 0.05; **p < 0.01;, ***p <0.001.). Data depicts one of two independent experiments. (FIG. 2H) The same experiment as FIG. 2G with TCF1 (n=7) in the TIL CD8+ population. (FIG. 2I) The same experiment as FIG. 2G with PD1^hi (n=6) in the TIL CD8+ population. (FIG. 2J) The same experiment as FIG. 2G with Tim3^hi (n=6) in the TIL CD8+ population. (FIG. 2K) The same experiment as FIG. 2G with CTLA4hi (n=6) in the TIL CD8+ population. (FIG. 2L) Flow cytometry readout of ex vivo cytokine release of previously isolated TIL upon re-stimulation with PMA/ionomycin. Data are mean ± SD with n=7 per group. Statistical analysis was performed by two-sided t-test (**p < 0.01). One out of two independent experiments are shown. (FIG. 2M) Flow cytometry readout of ex vivo cytokine release of previously isolated TIL upon re-stimulation with PMA/ionomycin. Data are mean ± SD with n=7 per group. Statistical analysis was performed by two-sided t-test (**p < 0.01). One out of two independent experiments are shown.
(FIG. 5L) UA induces PGC-1α expression in stimulated CD8+ cells. PGC-1α MFI at 48 h upon stimulation, as assessed by intracellular staining, is shown (n=3). One of two independent experiments are shown. Data are mean ± SD, statistical analysis was performed by two-sided t-test (p**<0.01). (FIG. 5M) Mitochondrial content of TIL CD8+ cells harvested from APTK-carrying mice, fed UA or control diet as depicted in FIG. 1J. Assessed by Mitotracker Red staining. Data are mean ± SD, *p < 0.05 by two-sided t-test. (FIG. 5N) Mitophagy and subsequent PGAM5 release drive PGC-1α upregulation. PGC-1α expression of CD8+ cells derived from Pink1^-/- KO mice upon 48 h stimulation in vitro in the presence of UA or DMSO control (n=4). Data are mean ± SD, statistical analysis was performed by two-sided t-test. Depicts one of two independent experiments. (FIG. 5O) Mitophagy and subsequent PGAM5 release drive PGC-1 α upregulation. PGC-1α expression of CD8+ cells derived from PGAM5^-^/- mice upon 48 h stimulation in vitro in the presence of UA or DMSO control (n=4). Data are mean ± SD, statistical analysis was performed by two-sided t-test. […]

[1] = ex vivo restimulation with PMA/ionomycin

## O=c1oc2cc(O)ccc2c2ccc(O)cc12 [Urolithin A]
UA or control diet
  mitochondrial content in TIL of APTK tumors: increased mitochondrial content
UA-fed mice
  CD8+CD44loCD62LhiSca1hi T cells (TSCM) in APTK-induced tumors: marked increase
  TCF1 expression in tumor infiltrating CD8+ T cells: increased expression
  dendritic cells (DCs), TAMs, MDSC subsets in TME: no change
  exhaustion marker CTLA-4 in CD8+ T cells: reduction
  exhaustion marker PD-1 in CD8+ T cells: reduction
  exhaustion marker Tim3 in CD8+ T cells: reduction
[1]
  IFNg induction in tumor infiltrating CD8+ T cells: stronger induction
  TNFa induction in tumor infiltrating CD8+ T cells: stronger induction
